Experimental data published in patent US6656911B2, “Serine protease inhibitors” (Cortech, Inc., priority 1994, dated 2003).
pKi: −log10 of the molar value.

target: T1, human neutrophil elastase (HNE) (Homo sapiens, UniProt P08246); assay: HNE Ki of CE compounds, tested as described in WO 96/16080; assay type: biochemical; conditions: read-out: HNE Ki
T1 sequence (P08246 30-267): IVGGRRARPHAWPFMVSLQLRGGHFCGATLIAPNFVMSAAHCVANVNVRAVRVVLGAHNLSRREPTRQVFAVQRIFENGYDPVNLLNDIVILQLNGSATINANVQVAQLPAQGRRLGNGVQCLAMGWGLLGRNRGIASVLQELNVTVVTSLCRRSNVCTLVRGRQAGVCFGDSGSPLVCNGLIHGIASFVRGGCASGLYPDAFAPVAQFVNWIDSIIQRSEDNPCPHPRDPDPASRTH

pKi	SMILES
10.41	CC(C)[C@H](NC(=O)[C@@H]1CCCN1C(=O)[C@@H](NC(=O)OCc1ccccc1)C(C)C)C(=O)c1nnc(Cc2cccc(C(F)(F)F)c2)o1 [CE2075, (Benzyloxycarbonyl)-L-valyl-N-[1-(2-[5-(3-trifluoromethylbenzyl)-1,3,4-oxadiazolyl]carbonyl)-2-(S)-methylpropyl]-L-prolinamide]
9.82	CC(C)[C@H](NC(=O)[C@@H]1CCCN1C(=O)[C@@H](NC(=O)OCc1ccccc1)C(C)C)C(=O)c1noc(Cc2cccc3ccccc23)n1 [CE2077, (Benzyloxycarbonyl)-L-valyl-N-[1-(3-[5-(1-napthylmethylene)-1,2,4-oxadiazolyl]carbonyl)-2-(S)-methylpropyl]-L-prolinamide]
8.98	CC(C)[C@H](NC(=O)[C@@H]1CCCN1C(=O)[C@@H](NC(=O)OCc1ccccc1)C(C)C)C(=O)c1noc(Cc2cccnc2)n1 [CE2078, (Benzyloxycarbonyl)-L-valyl-N-[1-(3-[5-(3-pyridylmethyl)-1,2,4-oxadiazolyl]carbonyl)-2-(S)-methylpropyl]-L-prolinamide]
6.88	CC(C)C(NC(=O)CN1C(=O)CN(C)C(=O)C1c1ccccc1)C(=O)c1noc(Cc2cccc(C(F)(F)F)c2)n1 [CE2084, 4-[1-Methyl-3-(R,S)-phenylpiperazine-2,5,-dione]-N-[1-(3-[5-(3-trifluoromethylbenzyl)-1,2,4-oxadiazolyl]carbonyl)-2-(S)-methylpropyl]acetamide]
7.70	Cc1cccc(Cc2nnc(C(=O)C(NC(=O)CN3C(=O)CCCC3c3ccc(F)cc3)C(C)C)o2)c1 [CE2087, 6-[4-Fluorophenyl]-ε-lactam-N-[1-(2-[5-(3-methylbenzyl)-1,3,4-oxadiazolyl]carbonyl)-2-(S)-methylpropyl]acetamide]
8.82	CC(C)[C@H](NC(=O)Cn1c(-c2ccc(F)cc2)ncc(NC(=O)OCc2ccccc2)c1=O)C(=O)c1noc(Cc2cccc(C(F)(F)F)c2)n1 [CE2089, 2-[5-[(Benzyloxycarbonyl]amino]-6-oxo-2-(4-fluorophenyl)-1,6-dihydro-1-pyrimidinyl]-N-[1-(3-[5-(3-trifluoromethylbenzyl)-1,2,4-oxadiazolyl]carbonyl)7(S)-2-methylpropyl]acetamide]
8.57	CC(C)[C@H](NC(=O)Cn1c(-c2ccc(F)cc2)ncc(N)c1=O)C(=O)c1noc(Cc2cccc(C(F)(F)F)c2)n1 [CE2090]
9.10	CC(C)[C@H](NC(=O)[C@@H]1CCCN1C(=O)[C@@H](NC(=O)OCc1ccccc1)C(C)C)C(=O)c1noc(Cc2cc(-c3ccccc3)cc(-c3ccccc3)c2)n1 [CE2096, (Benzyloxycarbonyl)-L-valyl-N-[1-(3-[5-(3,5-diphenylbenzyl)-1,2,4-oxadiazolyl]carbonyl)-2-(S)-methylpropyl]-L-prolinamide]
6.94	CC(C)[C@H](NC(=O)CN(Cc1ccccc1)C(=O)c1ccc[nH]1)C(=O)c1noc(Cc2cccc(C(F)(F)F)c2)n1 [CE2097, (Pyrrole-2-carbonyl)-N-(benzyl)glycyl-N-[1-(3-[5-(3-trifluoromethylbenzyl)1-1,2,4-oxadiazolyl]carbonyl)-(S)-methylpropyl]amide]
9.48	Cc1cccc(Cc2nnc(C(=O)[C@@H](NC(=O)[C@@H]3CCCN3C(=O)[C@@H](NC(=O)N3CCOCC3)C(C)C)C(C)C)o2)c1 [CE2104, (Morpholino-N-carbonyl)-L-valyl-N-[1-(2-[5-(3-methylbenzyl)-1,3,4-oxadiazolyl]carbonyl)-2-(S)-methylpropyl]-L-prolinamide]
9.14	CC(=O)N1CC(=O)N(CC(=O)N[C@H](C(=O)c2nnc(Cc3cccc(C)c3)o2)C(C)C)C(=Cc2ccc(F)cc2)C1=O [CE2105, 1-Acetyl-3-(4-fluorobenzylidene) piperazine-2,5-dione-N-[1-(2-[5-(3-methylbenzyl)-1,3,4-oxadiazolyl]carbonyl)-2-(S)-methylpropyl]acetamide]
7.39	Cc1cccc(Cc2nnc(C(=O)C(NC(=O)CN3C(=O)CN(C)C(=O)C3c3ccccc3)C(C)C)o2)c1 [CE2106, 4-[1-Methyl-3-(R,S)-phenylpiperazine-2,5,-dione]-N-[1-(2-[5-(3-methylbenzyl)-1,3,4-oxadiazolyl]carbonyl)-2-(S)-methylpropyl]acetamide]
7.77	Cc1cccc(Cc2nnc(C(=O)[C@@H](NC(=O)Cn3c(=O)c(NC(=O)OCc4ccccc4)cc4ccc(N5CCCCC5)cc43)C(C)C)o2)c1 [CE2107, 3-[(Benzyloxycarbonyl)amino]-7-piperidinyl-quinoline-2-one-N-[1-(2-[5-(3-methylbenzyl)-1,3,4-oxadiazolyl]carbonyl)-2-(S)-methylpropyl]acetamide]
7.98	Cc1cccc(Cc2nnc(C(=O)[C@@H](NC(=O)Cn3c(=O)c(NC(=O)OCc4ccccc4)cc4ccccc43)C(C)C)o2)c1 [CE2108, 3-[(Benzyloxycarbonyl)amino]-quinoline-2-one-N-[1-(2-[5-(3-methylbenzyl)-1,3,4-oxadiazolyl]carbonyl)-2-(S)-methylpropyl]acetamide]
8.92	COC(=O)c1ccc(C=C2C(=O)N(C(C)=O)CC(=O)N2CC(=O)N[C@H](C(=O)c2nnc(Cc3cccc(C)c3)o2)C(C)C)cc1 [CE2112, 1-Acetyl-3-(4-carbomethoxybenzylidene) piperazine-2,5-dione-N-[1-(2-[5-(3-methylbenzyl)-1,3,4-oxadiazolyl]carbonyl)-2-(S)-methylpropyl]acetamide]
7.60	CC(=O)N1CC(=O)N(CC(=O)N[C@H](C(=O)c2nnc(Cc3cccc(C)c3)o2)C(C)C)C(=Cc2ccncc2)C1=O [CE2114, 1-Acetyl-3-[(4-pyridyl)methylene] piperazine-2,5-dione-N-[1-(2-[5-(3-methylbenzyl)-1,3,4-oxadiazolyl]carbonyl)-2-(S)-methylpropyl]acetamide]
9.00	CC(C)[C@H](NC(=O)[C@@H]1CCCN1C(=O)[C@@H](NC(=O)OCc1ccccc1)C(C)C)C(=O)c1noc(Cc2ccc(N(C)C)cc2)n1 [CE2115, (Benzyloxycarbonyl)-L-valyl-N-[1-(3-[5-(4-dimethylaminobenzyl)-1,2,4-oxadiazolyl]carbonyl)-2-(S)-methylpropyl]-L-prolinamide]
6.23	COC(=O)c1c(F)c2ccccc2n(CC(=O)N[C@H](C(=O)c2nnc(Cc3cccc(C)c3)o2)C(C)C)c1=O [CE2117, 3-Carbomethoxy-4-fluoro-quinoline-2-one-N-[1-(2-[5-(3-methylbenzyl)-1,3,4-oxadiazolyl]carbonyl)-2-(S)-methylpropyl]acetamide]
7.88	Cc1cccc(Cc2nnc(C(=O)C(NC(=O)CN3C(=O)CCSC3c3ccccc3)C(C)C)o2)c1 [CE2118, 2-[2-(R,S)-Phenyl-4-oxometathiazan-3-yl]-N-[1-(2-[5-(3-methylbenzyl)-1,3,4-oxadiazolyl]carbonyl)-2-(S)-methylpropyl]acetamide]
7.55	Cc1cccc(Cc2nnc(C(=O)C(NC(=O)CN3C(=O)CSC3c3ccccc3)C(C)C)o2)c1 [CE2121, 2-[2-(R,S)-Phenyl-4-oxothiazolidin-3-yl]-N-[1-(2-[5-(3-methylbenzyl)-1,3,4-oxadiazolyl]carbonyl)-2-(S)-methylpropyl]acetamide]
7.20	Cc1cccc(Cc2nnc(C(=O)[C@@H](NC(=O)CN3C(=O)CSC3Cc3ccccc3)C(C)C)o2)c1 (stereo partly drawn) [CE2122]
